Test: TGA (thermogravimetric analysis) of thermal stability
Conditions: FIG. 3, ranking among the three compounds

Structure (SMILES): OC[C@H]1O[C@@H]2O[C@H]3[C@H](O)[C@@H](O)[C@@H](O[C@H]4[C@H](O)[C@@H](O)[C@@H](O[C@H]5[C@H](O)[C@@H](O)[C@@H](O[C@H]6[C@H](O)[C@@H](O)[C@@H](O[C@H]7[C@H](O)[C@@H](O)[C@@H](O[C@H]8[C@H](O)[C@@H](O)[C@@H](O[C@H]1[C@H](O)[C@H]2O)O[C@@H]8CO)O[C@@H]7CO)O[C@@H]6CO)O[C@@H]5CO)O[C@@H]4CO)O[C@@H]3CO [β-CD, β-cyclodextrin]
- thermal stability: highest

From US20070015729A1, “Conjugate of cyclodextrin and poly(oxyethylene), and process for preparation thereof” (priority 2005, published 2007)
